Measured values as given in patent publication US20110105626A1, “USE OF CYCLOHEXANEHEXOL DERIVATIVES FOR THE TREATMENT OF POLYGLUTAMINE DISEASES” (priority 2007, published 2011).
Entries after “also recorded” stand apart in the source; their conditions may differ.

Tests used:
Assay type in all cases: cell-based
HttQ103P-EGFP = biological target: T1, HttQ103P-EGFP (Homo sapiens, UniProt P42858); experiment: Aggregation of HttQ103P-EGFP in inducible PC-12 cells (visual counts by fluorescent microscopy)
T1 construct: expressed in transfected cells; host or cells: PC-12 cells, stably transfected, pIND construct induced with 5 µM ponasterone
T1 sequence (P42858 with tags, fused parts or gaps limits assumed): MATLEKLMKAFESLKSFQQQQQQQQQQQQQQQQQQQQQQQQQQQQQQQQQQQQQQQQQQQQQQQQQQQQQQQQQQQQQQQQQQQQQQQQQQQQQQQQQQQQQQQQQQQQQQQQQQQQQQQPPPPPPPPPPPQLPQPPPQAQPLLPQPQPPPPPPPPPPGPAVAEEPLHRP
Description: (§1) Inducible PC-12 cells. PC-12 cells stably transfected with pIND constructs containing HttQ103P-EGFP. The cells upon stimulation with 5 μM ponasterone for 48 hrs express poly-Q protein with a EGFP carboxy-terminal epitope tag (Apostol, B. et al., PNAS 100, 5950-5955, 2003). Chemical Compound screen in PC-12 cells. Cells were plated in 6 well plates and grown overnight, then treated with 5 μM ponasterone for 48 hrs in the presence and absence of cystamine bitartrate or scyllo-inositol. Both were dissolved in water, and added directly to cultures at a final concentration of 1-50 μM and aggregation calculated. Visual counts of aggregates and EGFP-positive cells were performed using fluorescent microscopy. At least 300 cells were counted from 5-6 fields in three wells in each of three independent experiments. Aggregation is expressed as the percentage of cells with aggregates versus total number of EGFP-positive cells. Chemical compound was assessed for cellular toxicity by evaluating cell morphology, trypan blue exclusion and cell viability. Protein Expression. Cells were plated in 6 well plates and grown overnight, then treated with 5 μM ponasterone for 48 hrs in the presence and absence of cystamine bitartrate or scyllo-inositol. Cells were lysed in hypotonic solution containing 20 mM HEPES ph 7.5, 5 mM NaCl, 10 mM NaF, 2 mM EDTA, 1% Nonidet P-40, 1 mM sodium, orthovanadate, and protease inhibitors. Protein concentration was determined using the Bradford assay and 100 μg of protein was used for western blotting. Primary antibody to poly-glutamine was used to detect HttQ103, while GAPDH was used as an internal house-keeping standard. Westerns were scanned and densitometry was used to quantify PolyQ expression.
A hallmark of polyglutamine diseases is the accumulation of intracellular aggregates in the cytosol and nucleus of neurons. Therefore, the inducible PC-12 cell lines were utilized to address the question of inhibition of HttQ103P-EFGP aggregation using scyllo-inositol and a previously identified aggregation inhibitor, cystamine bitartrate. Aggregates are readily distinguished from soluble Htt, by intense small aggregate formation versus diffuse cellular staining pattern of soluble Htt (FIG. 1). Simultaneously with induction of HttQ103P-EFGP expression, scyllo-inositol was added to the cells in a final concentration range from 0-100 μM, with 50 μM cystamine bitartrate as a positive control. Cells were photographed using fluorescence microscopy and total cells expressing EFGP counted, and cells containing aggregates. Efficacy of treatment was determined by a reduction in the percentage of cells containing EGFP aggregates (FIG. 1, 2).

Htt103Q-EGFP = biological target: T2, Htt103Q-EGFP (Homo sapiens, UniProt P42858); experiment: Western blot of poly-Q protein expression in inducible PC-12 cells, normalized to GAPDH; conditions: for Htt103Q-EGFP protein expression level (western blot): cystamine bitartrate treatment
T2 construct: expressed in transfected cells; host or cells: PC-12 cells, stably transfected, pIND construct induced with 5 µM ponasterone
T2 sequence (P42858 with tags, fused parts or gaps limits assumed): as above
Description: as §1
In order to examine changes in Htt103Q-EGFP protein concentration as a function of scyllo-inositol treatment, western blots were used (FIG. 3, 4). Cells were treated as above and then harvested for western blot analyses using a poly-glutamine specific antibody, and normalized to the housekeeping protein, GAPDH (FIG. 3). Blots were scanned and densitometry of each lane performed, to normalize for variations in protein loading pixels were normalized to those of GAPDH.

PC-12 cells = tested on: PC-12 cells
Description: as §1, with “Visual counts of aggregates and EGFP-positive cells were performed using fluorescent microscopy.” left out, “Protein Expression. Cells were plated in 6 well plates and grown overnight, then treated with 5 μM ponasterone for 48 hrs in the presence and absence of cystamine bitartrate or scyllo-inositol. Cells were lysed in hypotonic solution containing 20 mM HEPES ph 7.5, 5 mM NaCl, 10 mM NaF, 2 mM EDTA, 1% Nonidet P-40, 1 mM sodium, orthovanadate, and protease inhibitors.” left out, “Primary antibody to poly-glutamine was used to detect HttQ103, while GAPDH was used as an internal house-keeping standard.” left out
A hallmark of polyglutamine diseases is the accumulation of intracellular aggregates in the cytosol and nucleus of neurons. […] Cells were photographed using fluorescence microscopy and total cells expressing EFGP counted, and cells containing aggregates. […]

| Structure (SMILES) | Aggregation (percentage of cells with aggregates versus total EGFP-positive cells) (HttQ103P-EGFP; 50 μM cystamine bitartrate as positive control, added simultaneously with induction) | Htt103Q-EGFP protein expression level (western blot) (Htt103Q-EGFP) | Htt103Q-EGFP protein expression level (western blot) (Htt103Q-EGFP; listed as Cystamine bitratrate) | Concentrations at which aggregation of poly-Q repeat Htt is decreased (HttQ103P-EGFP; inducible PC-12 cells) | Lowest concentration with significant decrease in the formation of aggregates (HttQ103P-EGFP; inducible PC-12 cells, FIG. 2) | Aggregation (percentage of cells with aggregates versus total EGFP-positive cells) (HttQ103P-EGFP; scyllo-inositol 0-100 μM added simultaneously with induction, 5 μM ponasterone 48 hrs) | Aggregation (percentage of cells with aggregates versus total EGFP-positive cells) (HttQ103P-EGFP; scyllo-inositol 0-100 μM added simultaneously with induction, 5 μM ponasterone 48 hrs, listed as Scyllo-inositol) | Cell viability, trypan blue exclusion assay (PC-12 cells) | Morphological examination of cells for changes associated with toxicity (PC-12 cells) | Concentrations at which poly-Q (Htt) protein is decreased / mutant Htt degradation is enhanced (Htt103Q-EGFP; inducible PC-12 cells, western blot) | Htt103Q-EGFP protein concentration (western blot, densitometry) (Htt103Q-EGFP; scyllo-inositol concentration series, normalized to GAPDH) | poly-Q protein expression (Htt103Q-EGFP; scyllo-inositol up to 10 μM concentration) |
| --- | --- | --- | --- | --- | --- | --- | --- | --- | --- | --- | --- | --- |
| NCCSSCCN.O=C(O)C(O)C(O)C(=O)O (stereo not drawn) [cystamine bitartrate, reference compound] | inhibits aggregate formation; also recorded: aggregated poly-Q is decreased; also recorded: decreased aggregation of poly-Q | no effect on Htt103 cellular protein concentration; also recorded: did not change protein expression levels | did not alter poly-Q protein expression | – | – | – | – | – | – | – | – | – |
| O[C@H]1[C@H](O)[C@@H](O)[C@H](O)[C@@H](O)[C@@H]1O [scyllo-inositol] | – | – | – | 1 to 100 µM | 1 µM | concentration dependent effect of decreased aggregation | concentration dependent decrease in the formation of aggregates | no effect on cell viability | did not detect changes associated with toxicity | 25 to 100 µM | concentration dependant decrease in Htt protein; also recorded: decreased the protein concentration | did not alter poly-Q protein expression |
